Results as given in patent US7655677B2, “Composition and method for controlling house insect pest” (priority 2002, dated 2010).

Experiments:
Assay type in all cases: in vivo
[1] = test system: Reticulitermes speratus; experiment: Test Example 3: treated filter paper in Petri dish, termite mortality after 37 days
Protocol: (§1) Mortality (%)=(Number of dead termite workers/15 termite workers)×100
(§2) Further, by the Colby's formula, the theoretical value (%) of mortality can be calculated. In a case where the actual mortality (%) is higher than the theoretical value (%), it can be said that the composition of the present invention has a synergistic effect for controlling the house insect pest.
(§3) A filter paper having a diameter of 80 mm was placed in a plastic Petri dish, and 1 ml of a pesticide solution having a predetermined concentration, was dropped thereon. After the treatment, the solvent was sufficiently evaporated, and then, 1 ml of distilled water was impregnated to the treated filter paper, whereupon 10 termite workers (Reticulitermes speratus) were released. The plastic Petri dish was placed in a container having wet cotton laid over the bottom, and the container was maintained at 25° C. for 37 days, whereupon the number of dead termites in the Petri dish was examined, and the mortality was calculated in the same manner as in Test Example 1.

[2] = test system: Reticulitermes speratus; experiment: Test Example 4: treated filter paper in Petri dish, termite mortality after 25 days
Protocol: as §1, §2
as §3, with “25” for “37”

[3] = test system: Coptotermes formosanus; experiment: Test Example 13: Japanese red pine poison bait, termite mortality and abnormal ratio with time
Excerpt: A wood block of Japanese red pine (2 cm×2 cm×0.5 cm) subjected to boiling treatment in hot water, was immersed in a methanol solution of a sample compound, and then, it was dried to obtain a Japanese red pine poison bait chemical containing the sample compound in a predetermined concentration. This poison bait chemical was put into a cylindrical cup made of acrylic resin (i.e. a cup having a hole with a diameter of 10 mm formed in the bottom and having hard plaster (Dental Stone) set at the bottom in the thickness of 10 mm), and 15 termite workers (Coptotermes formosanus) were released thereon. The cup was placed in a container having wet cotton laid over the bottom, and the container was maintained at room temperature of 25° C., whereby the number of dead termites and abnormal termites in the cup was examined as the time passed, and the mortality was calculated.

[4] = test system: Reticulitermes speratus; experiment: Test Example 15: fresh pulp poison bait, termite mortality after 18 days; settings: fresh pulp bait 0.1%
Excerpt: (§4) Fresh pulp (2 cm×2 cm×0.1 cm) was immersed in a methanol solution of a sample compound. Then, it was dried to obtain a fresh pulp poison bait chemical containing 0.1% of the sample compound. This poison bait chemical was placed in a cylindrical cup made of acrylic resin (i.e. a cup having a hole with a diameter of 10 mm formed in the bottom and having hard plaster (Dental Stone) set at the bottom in a thickness of 10 mm), and 20 termite workers (Reticulitermes speratus) were released thereon. The cup was placed in a container having wet cotton laid over the bottom, and the container was maintained at room temperature of 25° C. for 18 days, whereupon the number of dead termites in the cup was examined, and the mortality was calculated.

[5] = test system: Reticulitermes speratus; experiment: Test Example 16: pulp (KIMUTAORU) poison bait, termite mortality after 18 days; settings: pulp (KIMUTAORU) bait 0.1%
Excerpt: as §4
A test was carried out in the same manner as the above Test Example 15 except that fresh pulp was changed to pulp (KIMUTAORU, tradename, manufactured by CRECIA Co.).

[6] = test system: Coptotermes formosanus; experiment: Test Example 20: treated sandy soil, termite mortality and abnormal ratio with time
Protocol: Sandy soil passed through a sieve of 20 mesh, was dried at a temperature of 60° C. to a constant weight, and 4 g of the soil thus obtained, was packed into a cup having a diameter of 60 mm. 1 ml of a pesticide solution adjusted to a predetermined concentration was added and thoroughly mixed, whereupon 15 termite workers (Coptotermes formosanus) were leased. The cup was placed in a container having wet cotton laid over the bottom, and the container was maintained at room temperature of 25° C., whereby the number of dead termites in the cup was examined as the time passed, and the mortality was calculated.

[7] = test system: Lasius japonicus; experiment: Test Example 22: cotton ball with compound in 10% cane sugar solution, ant mortality
Protocol: 10 Ants (Lasius japonicus) were put into a test tube together with a cotton ball impregnated with 0.5 ml of a solution containing a sample compound in a predetermined concentration and containing 10% of cane sugar. […]

[8] = test system: Lasius japonicus; experiment: Test Example 23: skim milk poison bait placed near ant nest, number of ants passing the gate per minute; settings: 0.2% (W/W) bait, ants through the gate per minute
Excerpt: 2 g of this poison bait chemical was placed directly on an optional ground surface distanced by about 50 cm from the gate of the ant nest. Before, 2 days after, 3 days after and 5 days after placing the poison bait chemical, the number of ants going out and coming in through the gate per minute was examined.

[9] = 1000 ppm solution, 4 Days later

CC(=NN=C(Cc1ccc(C(F)(F)F)cc1)c1ccc(F)cc1)N(C)C [Compound No. II-2, [4′-fluoro-2-(4-trifluoromethylphenyl)acetophenone]N′-[1-(dimethylamino)ethylidene]hydrazone]
153: Ants passing the nest gate per minute ([8]; Before placing poison bait chemical)
11: Ants passing the nest gate per minute ([8]; 2 Days later)
3: Ants passing the nest gate per minute ([8]; 3 Days later)
100%: Mortality ([3]; bait 0.005%, 23 Days later) | Mortality ([3]; bait 0.01%, 17 Days later) | Mortality ([3]; bait 0.01%, 23 Days later) | Mortality ([3]; bait 0.05%, 14 Days later) | Mortality ([3]; bait 0.05%, 17 Days later) | Mortality ([3]; bait 0.05%, 23 Days later) | Mortality ([3]; bait 0.1%, 8 Days later) | Mortality ([3]; bait 0.1%, 10 Days later) | Mortality ([3]; bait 0.1%, 14 Days later) | Mortality ([3]; bait 0.1%, 17 Days later) | Mortality ([3]; bait 0.1%, 23 Days later) | Mortality [4] | Mortality [5] | Mortality ([6]; 250 ppm solution, 11 Days later) | Mortality ([6]; 1000 ppm solution, 11 Days later) | abnormal ratio ([6]; 4000 ppm solution, 1 Day later) | Mortality ([6]; 4000 ppm solution, 4 Days later) | Mortality ([6]; 4000 ppm solution, 11 Days later) | Mortality ([7]; 10 ppm, 11 Days later) | Mortality ([7]; 50 ppm, 2 Days later) | Mortality ([7]; 50 ppm, 3 Days later) | Mortality ([7]; 50 ppm, 8 Days later) | Mortality ([7]; 50 ppm, 11 Days later)
80%: Mortality ([3]; bait 0.05%, 10 Days later) | Mortality ([7]; 10 ppm, 8 Days later)
70%: abnormal ratio ([7]; 50 ppm, 1 Day later)
14%: abnormal ratio ([3]; bait 0.05%, 8 Days later)
47%: Mortality ([3]; bait 0.05%, 4 Days later) | Mortality ([3]; bait 0.05%, 8 Days later)
7%: abnormal ratio ([3]; bait 0.05%, 10 Days later) | abnormal ratio ([6]; 250 ppm solution, 4 Days later)
73%: Mortality ([3]; bait 0.1%, 4 Days later) | Mortality [6, 9]
27%: abnormal ratio [6, 9]
10%: Mortality ([1]; II-2 5 ppm alone) | Mortality ([2]; II-2 10 ppm alone)
55%: Mortality ([3]; bait 0.01%, 10 Days later)
0%: Mortality ([2]; II-2 5 ppm alone) | Mortality ([3]; bait 0.005%, 4 Days later) | Mortality ([3]; bait 0.005%, 8 Days later) | Mortality ([3]; bait 0.005%, 10 Days later) | Mortality ([3]; bait 0.01%, 4 Days later) | Mortality ([6]; 250 ppm solution, 1 Day later) | Mortality ([6]; 250 ppm solution, 4 Days later) | Mortality ([6]; 1000 ppm solution, 1 Day later) | Mortality ([6]; 4000 ppm solution, 1 Day later) | Mortality ([7]; 10 ppm, 1 Day later) | Mortality ([7]; 10 ppm, 2 Days later)
20%: Mortality ([1]; II-2 10 ppm alone) | abnormal ratio ([7]; 10 ppm, 2 Days later)
40%: Mortality ([3]; bait 0.01%, 8 Days later) | abnormal ratio ([3]; bait 0.01%, 14 Days later) | Mortality ([7]; 10 ppm, 3 Days later)
30%: Mortality ([3]; bait 0.005%, 14 Days later) | Mortality ([7]; 50 ppm, 1 Day later)
60%: abnormal ratio ([3]; bait 0.01%, 8 Days later) | Mortality ([3]; bait 0.01%, 14 Days later)
30 (30) %: Mortality ([3]; bait 0.005%, 17 Days later) | abnormal ratio ([3]; bait 0.005%, 17 Days later)
45%: abnormal ratio ([3]; bait 0.01%, 10 Days later)
0: Ants passing the nest gate per minute ([8]; 5 Days later)
